Measured values as given in patent US6903052B2, “Nematicidal compositions and methods” (Divergence, Inc., priority 2002, dated 2005).

What was measured:
[1] = tested on: C. elegans; assay: Nematicidal activity of emulsions made with Tween-20 (replacing Igepal CO 630) against C. elegans; format: cell-based, Caenorhabditis elegans; details: Tween-20 emulsion
Protocol: Some nematodes assayed as described in Example 9 lacked tolerance to emulsions made with the surfactant Igepal CO 630. For this reason some assays were repeated with Tween-20-based emulsions.
(§1) Briefly, 1 ml 1% stock solution emulsions were prepared by mixing 10 μl of fatty acid methyl ester with 20 μl of the surfactant Tween-20 in a 1.5 ml eppendorf tube. After careful mixing of fatty acid and Tween-20, 850 μl of ddH20 was added and mixed by gentle pipetting until a homogeneous solution was obtained. Finally, 120 μl of pure isopropanol was added and mixed by gentle pipetting. This stock solution was then used to produce various fatty acid methyl ester dilution emulsions in 24-well plate assays.

[2] = tested on: C. elegans; assay: Nematicidal activity of single fatty acid methyl ester emulsions against Caenorhabditis elegans (Example 4); format: cell-based
Protocol: Mixed stage Caenorhabditis elegans were washed off plates seeded with OP50 bacteria using M9 solution. 250 μl of the M9 solution, which contained about 50 worms, was pipetted into each well of a 24-well plate.
as §1, with “Fatty acid methyl ester emulsions were prepared following the teachings of Kim et al (U.S. Pat. No. 5,698,592). Briefly,” for “Briefly,”, “Igepal CO 630” for “Tween-20”, “Igepal CO 630,” for “Tween-20,”
To each well, fatty acid emulsions or control emulsions were added and rapidly mixed by swirling. Nematode viability was scored by visual observation and motility assays at various time points 24 hours following addition of emulsions or controls. The fatty acid emulsions tested were methyl esters of nonanoic (pelargonic) acid, ricinoleic acid, vernolic acid, linoleic acid, oleic acid, and control emulsions lacking fatty acids.

[3] = tested on: M. incognita; assay: Nematicidal activity of fatty acid methyl ester emulsions, spectrum (Example 8); format: cell-based, Meloidogyne incognita; details: M. incognita 2nd stage juveniles, scored at 48 hours
Protocol: (§2) Briefly, the indicated fatty acid emulsions were added and rapidly mixed by swirling. Nematode viability was scored by visual observation and motility assays 24 hours following addition of emulsions (48 hours for plant parasitic nematodes Meloidogyne and Heterodera species). The fatty acid emulsions tested were methyl esters of nonanoic (pelargonic) acid, ricinelaidic acid, ricinoleic acid, vernolic acid, linoleic acid, and oleic acid. […] Results shown are mean % values obtained from multiple independent experiments
(§3) The Caenorhabiditis elegans were mixed stage populations. Similar effects seen on several other free-living nematode species. The Parastrongyloides trichosuri (parasite of Australian bushtail possum) were dauer-like infective 3rd stage larva. Similar effects are also seen against free-living stages. The Meloidogyne incognita and Meloidogyne javanica (root knot nematode) were 2nd stage juveniles (dauer-like infective stage). The Heterodera glycines (soybean cyst nematode) were 2nd stage juveniles (dauer-like infective stage). Finally, the Pratylenchus scribneri (corn lesion nematode) were mixed stage populations.

[4] = tested on: C. elegans; assay: Rescue of C. elegans delta-12 FAT RNAi feeding phenotype by fatty acid methyl esters; format: cell-based, Caenorhabditis elegans; details: 3 mM added to the NGM media
Text: RNAi by feeding: C. elegans can be grown on lawns of E. coli genetically engineered to produce double stranded RNA (dsRNA) designed to inhibit delta-12 fat-2 expression. Briefly, E. coli were transformed with a genomic fragment of a portion of the C. elegans fat-2 gene sequence, specifically a fragment 651 nucleotides long, containing the entire first exon and terminating just before the conserved intron splice junction between the first exon and first intron. This construct encodes approximately the first 217 amino acids of the C. elegans delta-12 FAT gene. The 651 nucleotide genomic fragment was cloned into an E. coli expression vector between opposing T7 polymerase promoters. The clone was then transformed into a strain of E. coli that carries an IPTG-inducible T7 polymerase. As a control, E. coli was transformed with a gene encoding the Green Fluorescent Protein (GFP). Feeding RNAi was initiated from C. elegans eggs or from C. elegans […]. […] When feeding RNAi was started from C. elegans L4 larvae at 23° C. on NGM plates containing IPTG and E. coli expressing the C. elegans […] […] The sequence of the fat-2 gene is of sufficiently high complexity (i.e., unique) such that the RNAi is not likely to represent cross reactivity with other genes. […]

[5] = tested on: H. glycines; assay: Nematicidal activity of fatty acid methyl ester emulsions, spectrum (Example 8); format: cell-based, Heterodera glycines; details: H. glycines 2nd stage juveniles, scored at 48 hours
Protocol: as §2, §3

[6] = tested on: C. elegans; assay: as above; format: cell-based, Caenorhabditis elegans; details: C. elegans mixed stage
Protocol: as §2, §3

[7] = tested on: P. trichosuri; assay: as above; format: cell-based, Parastrongyloides trichosuri; details: P. trichosuri infective 3rd stage larva
Protocol: as §2, §3

[8] = tested on: M. javanica; assay: as above; format: cell-based, Meloidogyne javanica; details: M. javanica 2nd stage juveniles, scored at 48 hours
Protocol: as §2, §3

[9] = tested on: P. scribneri; assay: as above; format: cell-based, Pratylenchus scribneri; details: P. scribneri mixed stage
Protocol: as §2, §3

[10] = tested on: C. elegans; assay: Nematicidal activity of emulsions made with cyclodextrins (replacing isopropanol) against C. elegans; format: cell-based, Caenorhabditis elegans; details: igepal CO 630 / 2-Hydroxypropyl-β-Cyclodextrin emulsion
Text: In an effort to increase the bioavailability of fatty acid methyl esters in emulsions, isopropanol was replaced with one of two cyclodextrins (Methyl-β-Cyclodextrin or 2-Hydroxypropyl-β-Cyclodextrin).

[11] = tested on: B. malayi; assay: Nematicidal activity of tween-based emulsions against microfilarial nematodes; format: cell-based, Brugia malayi
Protocol: To each well, tween-based fatty acid emulsions were added and rapidly mixed by swirling. Nematode microfilaria viability was scored by visual observation of motility at 24 and 48 hours following addition of emulsions. The fatty acid emulsions tested were methyl esters of ricinoleic acid, vernolic acid, ricinelaidic acid, oleic acid, and control emulsions lacking fatty acids. The results of this study are presented in Table 7 as the percentage of non-motile microfilaria 24 hours after inoculation and in Table 8 as the percentage of non-motile microfilaria 48 hours after inoculation

[12] = tested on: tomato seedlings; assay: Phytotoxicity evaluation on tomato seedlings; format: in vivo; details: 250 μl of 1% emulsion applied to stem-media interface of two-week seedlings
Protocol: Sterilized tomato seeds were germinated in magenta jars containing Gamborg's agar media. After two weeks of growth, seedlings were treated with 250 μl of 1% fatty acid methyl ester emulsion (nonanoic acid, ricinoleic acid, ricinelaidic acid, oleic acid, or a control emulsion lacking any fatty acid), applied directly to the stem-media interface. Tomato seedlings were scored at various times after application of emulsions.

[13] = tested on: M. javanica; assay: Nematicidal activity of fatty acid methyl ester emulsions against root knot nematode J2 larvae (Example 6); format: cell-based, Meloidogyne javanica; details: 0.1% emulsion; 48 hours incubation, counted about 24 hours after transfer to plates
Protocol: as §1, with “Fatty acid methyl ester emulsions were prepared following the teachings of Kim et al (U.S. Pat. No. 5,698,592). Briefly,” for “Briefly,”, “Igepal CO 630” for “Tween-20”, “Igepal CO 630,” for “Tween-20,”
(§4) Meloidogyne incognita and javanica were prepared from tomato roots. The roots were bleached and the debris was separated from the J2 larvae and eggs by filtration followed by sucrose density gradient centrifugation. Eggs were hatched over 4 days at 15° C. and the J2 larvae were collected by passage though a filter, followed by centrifugation.
(§5) Nematodes and emulsions were incubated with shaking at room temperature for 48 hours. The contents of each well were transferred to a small spot on individual NGM plates lacking bacteria. About 24 hours after the transfer to plates, worms on and off the inoculation spot were counted as not viable or viable, respectively. Worms were considered viable if they had crawled away from the inoculation spot, or if they were moving. Worms were considered non-viable if they remained at the inoculation spot.

[14] = tested on: M. incognita; assay: as above; format: cell-based, Meloidogyne incognita; details: 0.1% emulsion; 48 hours incubation, counted about 24 hours after transfer to plates
Protocol: as §1, with “Fatty acid methyl ester emulsions were prepared following the teachings of Kim et al (U.S. Pat. No. 5,698,592). Briefly,” for “Briefly,”, “Igepal CO 630” for “Tween-20”, “Igepal CO 630,” for “Tween-20,”
as §4, §5

[15] = tested on: everted hamster jejunal and ileal segments; details: Gaginella et al. (1975); cited from earlier work
[16] = tested on: isolated intestinal epithelial cells; details: Gaginella et al. (1977); cited from earlier work

Structure (SMILES) | Percentage of Worm Death ([2]; 0.003% emulsion, 1 hr) | Percentage of Worm Death ([2]; 0.003% emulsion, 6 hr) | Percentage of Worm Death ([2]; 0.003% emulsion, 24 hr) | Percentage of Worm Death ([2]; 0.1% emulsion, 1 hr) | Percentage of Worm Death ([2]; 0.1% emulsion, 6 hr) | Percentage of Worm Death ([2]; 0.1% emulsion, 24 hr) | Rescue of the delta-12 FAT RNAi feeding phenotype [4] | % Worm Death (24 hr) ([5]; 0.001% solution) [%] | % Worm Death (24 hr) ([5]; 0.01% solution) [%] | % Worm Death (24 hr) ([5]; 0.1% solution) [%] | % Worm Death (24 hr) ([6]; 0.01% solution) [%] | % Worm Death (24 hr) ([6]; 0.1% solution) [%] | % Worm Death (24 hr) ([7]; 0.01% solution) | % Worm Death (24 hr) ([7]; 0.1% solution) | % Worm Death (24 hr) ([9]; 0.01% solution) [%] | % Worm Death (24 hr) ([9]; 0.1% solution) [%] | further results
CCCCC/C=C\C/C=C\CCCCCCCC(=O)OC [Linoleic Acid (C18-methyl ester), linoleic acid methyl ester, reference compound] | 0-5% | 0-5% | 0-5% | 0-5% | 0-5% | 0-5% | partial rescue | <20 | <20 | <20 | <10 | <10 | ˜25% | ˜25% | <20 | <20 | % Worm Death (24 hr) ([1]; 0.01% solution): <10%; % Worm Death (24 hr) ([1]; 0.1% solution): <10%; % Worm Death (24 hr) ([3]; 0.01% solution): 20%; % Worm Death (24 hr) ([3]; 0.1% solution): 20%; % Worm Death (24 hr) ([6]; 0.001% solution): <10%; % Worm Death (48 hr) ([8]; 0.01% solution): 0-5%; % Worm Death (48 hr) ([8]; 0.1% solution): 20%; % Worm Death (24 hr) ([10]; 0.01% solution): <10%; % Worm Death (24 hr) ([10]; 0.1% solution): <10%
CCCCCCCC/C=C\CCCCCCCC(=O)OC [Oleic Acid (C18-methyl ester), oleic acid methyl ester, reference compound] | 0-5% | 0-5% | 0-5% | 0-5% | 0-5% | 0-5% | does not rescue | <10 | <10 | <10 | <10 | <10 | ˜10% | ˜10% | <20 | <20 | percentage of non-motile microfilaria ([11]; 24 hrs post-inoculation, 0.0008%): 0%; percentage of non-motile microfilaria ([11]; 24 hrs post-inoculation, 0.0016%): 0%; percentage of non-motile microfilaria ([11]; 24 hrs post-inoculation, 0.003%): 0%; percentage of non-motile microfilaria ([11]; 24 hrs post-inoculation, 0.005%): 0%; percentage of non-motile microfilaria ([11]; 24 hrs post-inoculation, 0.0067%): 0%; percentage of non-motile microfilaria ([11]; 24 hrs post-inoculation, 0.008%): 0%; percentage of non-motile microfilaria ([11]; 48 hrs post-inoculation, 0.0008%): 0%; percentage of non-motile microfilaria ([11]; 48 hrs post-inoculation, 0.0016%): 0%; percentage of non-motile microfilaria ([11]; 48 hrs post-inoculation, 0.003%): 0%; percentage of non-motile microfilaria ([11]; 48 hrs post-inoculation, 0.005%): 0%; percentage of non-motile microfilaria ([11]; 48 hrs post-inoculation, 0.0067%): 0%; percentage of non-motile microfilaria ([11]; 48 hrs post-inoculation, 0.008%): 0%; Visible effects on tomato seedlings [12]: none of the tomatoes treated with the other fatty acid methyl ester emulsions showed visible effects; M. javanica (% not viable) [13]: 20%; M. incognita (% not viable) [14]: 25%
CCCCCC[C@@H](O)C/C=C\CCCCCCCC(=O)O [Ricinoleic acid, reference compound] |  |  |  |  |  |  |  |  |  |  |  |  |  |  |  |  | Effect on water (and electrolyte) absorption [15]: inhibitory effect on water and electrolyte absorption; Cytotoxicity [16]: cytotoxic
